Common to all, as to assay type: cell-based, human
One test relates to U-87 MG cells. As to the kind of experiment: Scratch wound assay, U-87 MG cells. The method, then:
U-87 MG cells were infected with control or PTPμ shRNA lentivirus. After three days, confluent monolayers of cells were scratched with a 20 μl pipette tip to induce a wound. The wounded edges were imaged using a Nikon (Tokyo, Japan) TE200 inverted microscope and Spot RT digital camera and image acquisition software (Diagnostic Instruments, Inc., Sterling Heights, Mich.) Images were collected with a 10× objective 0, 6, 24, and 48 hours after wounding. Images were quantitated using MetaMorph software (Molecular Devices, Downingtown, Pa.) by measuring the width of the wound at each time point. The difference between the width of the wound at the zero time point and the time point being analyzed was divided by two. This value reflects the distance migrated by the leading edge of one side of the wound during a given time interval. Replicates were averaged and plotted using Microsoft Excel. Error bars indicate standard error. Data were analyzed for statistical significance using an unpaired student's t-test. Rac1 inhibition studies were performed using a Rac1-specific inhibitor from Calbiochem (Gibbstown, N.J.) (J Biol Chem. 2005;280:37516-37525; Proc Natl Acad Sci USA. 2004;101:7618-7623). For morphological studies, the inhibitor was dissolved in water and added at a final concentration of 100 μM just prior to scratching the cells. Cells were analyzed after 6 hours. For migration studies, the inhibitor was dissolved in water and added at a final concentration of 50 μM just prior to scratching the cells. Cells were analyzed after 24 hours.

A further test relates to PTPμ. As to the kind of experiment: Proteolytic processing of PTPμ in LN-229 cells treated with protease inhibitors (biotinylation, immunoprecipitation, immunoblot). The settings on record: for endogenous PTPμ PΔE and ICD fragments: parental LN-229 cells, immunoprecipitation SK-18, immunoblot SK-7; for PTPμ PΔE and ICD fragments: total lysates of LN-229 cells overexpressing PTPμ or PTPμ-GFP; for furin cleavage of PTPμ (full-length PTPμ at the cell surface, P-subunit formation): LN-229 cells, cell surface biotinylation, inhibitor 50 μM, 17-20 hours. The method, then: Cell lysates were prepared and immunoblotted using normalized samples of ˜20 μg protein detected with monoclonal antibodies recognizing the intracellular segment of PTPμ (SK-7 or SK-18) (Mol Cell Biochem 1993; 127-128: 131-41). An antibody against vinculin was from Sigma-Aldrich (St. Louis, Mo.). The GFP antibody JL-8 was from Clontech (Mountain View, Calif.).
Cell surface biotinylation was performed using a Sulfo-NHS-SS-Biotin Kit (Pierce). Biotinylated proteins were isolated and resolved by SDS-PAGE on 6% gels followed by immunoblotting with an antibody to PTPμ (SK-18) as described (Mol Cancer Res 2008; 6: 1106-13).
(§1) The Furin Inhibitor I (Dec-RVKR-CMK, Calbiochem, Gibbstown, N.J.) was used at 50 μM for 17-20 hours. The γ-secretase inhibitors DAPT (Sigma-Aldrich) and L-685,458 (Sigma-Aldrich) were used at 2 μM and 5 μM, respectively, for 17-20 hours. The proteasome was inhibited with MG132 (Sigma-Aldrich) at 20 μM or epoxomicin (Calbiochem) at 5 μM for 4 hours. GM6001 (Calbiochem) was used at 50 μM as an MMP/ADAM inhibitor for 17-20 hours. Inhibitors were reconstituted in DMSO, which was used as a vehicle control. […] The PTPμ wedge peptide and a scrambled control peptide were synthesized to include a membrane-penetrant Tat-derived sequence at the C-terminus to promote cellular uptake. Peptides synthesized by Genemed Synthesis (San Antonio, Tex.) or GenScript (Piscataway, N.J.) were reconstituted in water and added to cells at a final concentration of 5 μM.
Cells were grown to confluence, treated with inhibitors, and lysed in 20 mM Tris-HCL, pH 7.5, 1% Triton X-100, 150 mM NaCl, 2 mM EDTA, 1 mM benzamidine, aprotinin (5 μg/ml), leupeptin (5 μg/ml) and pepstatin (1 μg/ml). Samples were sonicated and centrifuged at 10,000 rpm for 5 minutes. Immunoprecipitations from ˜400 μg total protein were performed using a PTPμ antibody (SK-18) and resolved by SDS-PAGE on 8% gels followed by immunoblotting with an antibody to PTPμ (SK-7).

The next test deals with LN-229 cells. The test can be described thus: Scratch wound assay, LN-229 cells. Conditions: for PTPμ fragment-mediated cell migration: LN-229 cells, DAPT 2 μM, GM6001 50 μM; for migration of LN-229 cells: peptide 5 μM, versus scrambled control, 24 hours. The method, then: Confluent monolayers of cells were scratched to induce a wound and analyzed by microscopy for the distance migrated by the leading edge of the wound at 0 and 24 hrs.
as §1

“Also recorded” adds a separate entry of the source. Where a SMILES comes first, the peptide text is derived from it. The star is where a group is joined. Decanoyl = CCCCCCCCCC(=O)*; Cbz = O=C(OCc1ccccc1)*; CH2Cl = ClC*

With `CCN(CC)CCCC(C)Nc1nc(C)cc(Nc2ccc3nc(C)cc(N)c3c2)n1` (racemic) [Rac1 inhibitor], in the test with U-87 MG cells (U-87 MG cells with PTPμ shRNA #1, inhibitor 100 μM, 6 hours), the “induction of lamellipodia in cells with reduced PTPμ expression” value is “prevented the induction of lamellipodia; also recorded: blocked the formation of PTPμ-induced lamellipodia”. Moreover, the “migration induced by the loss of PTPμ (distance migrated by leading edge)” value in the test on U-87 MG cells (U-87 MG cells with PTPμ shRNA, inhibitor 50 μM, 24 hours) is reported as “significantly suppressed the migration; also recorded: significantly reduced the migration”. The “effect on morphology of control U-87 MG cells” value in the test on U-87 MG cells (control shRNA U-87 MG cells, inhibitor 100 μM, 6 hours) was “no effect on morphology”.
For the compound `C[C@H](NC(=O)Cc1cc(F)cc(F)c1)C(=O)N[C@H](C(=O)OC(C)(C)C)c1ccccc1` [DAPT], in the test on PTPμ, the “endogenous PTPμ PΔE and ICD fragments” value is on record as “stabilized a fragment that corresponds by molecular weight to a membrane-tethered truncated P-subunit termed PΔE”; the “PTPμ PΔE and ICD fragments” value was “accumulation of PTPμ PΔE and ICD; also recorded: stabilized”. In addition, the “PTPμ fragment-mediated cell migration” value with LN-229 cells is listed as “increased migration”.
As to `CCCCCCCCCC(=O)N[C@@H](CCCN=C(N)N)C(=O)N[C@H](C(=O)N[C@@H](CCCCN)C(=O)N[C@@H](CCCN=C(N)N)C(=O)CCl)C(C)C` [Furin Inhibitor I, Dec-RVKR-CMK] (Decanoyl-RVKR-CH2Cl), the “furin cleavage of PTPμ (full-length PTPμ at the cell surface, P-subunit formation)” value in the test with PTPμ (listed as inhibitor of furin) is recorded as “prevented P-subunit formation”; in the test on PTPμ (listed as inhibitor of furin activity) it was “accumulation of full-length PTPμ (200 kDa) at the cell surface”.
Regarding `CNC(=O)[C@H](Cc1c[nH]c2ccccc12)NC(=O)[C@@H](CC(=O)NO)CC(C)C` [GM6001], the “endogenous PTPμ PΔE and ICD fragments” value in the test on PTPμ is “limited the formation of PTPμ PΔE and ICD fragments”. The “PTPμ fragment-mediated cell migration” value in the test with LN-229 cells was “decreased migration”.
With `CC(C)C[C@H](NC(=O)[C@H](Cc1ccccc1)C[C@@H](O)[C@H](Cc1ccccc1)NC(=O)OC(C)(C)C)C(=O)N[C@@H](Cc1ccccc1)C(N)=O` [L685,458, L-685,458], in the test on PTPμ, the “PTPμ PΔE and ICD fragments” value was “accumulation of PTPμ PΔE and ICD; also recorded: stabilized”.
For `CC(C)C[C@@H](C=O)NC(=O)[C@H](CC(C)C)NC(=O)[C@H](CC(C)C)NC(=O)OCc1ccccc1` [MG132] (Cbz-Leu-Leu-Leu-aldehyde), in the test on PTPμ, the “endogenous PTPμ PΔE and ICD fragments” value is “accumulation of both PΔE and a soluble fragment termed PTPμ intracellular domain (ICD); also recorded: stabilized”; the “PTPμ PΔE and ICD fragments” value is “accumulation of PTPμ PΔE and ICD; also recorded: stabilized”.
Turning to `CC[C@H](C)[C@H](NC(=O)[C@H]([C@@H](C)CC)N(C)C(C)=O)C(=O)N[C@H](C(=O)N[C@@H](CC(C)C)C(=O)[C@@]1(C)CO1)[C@@H](C)O` [epoxomicin], the “PTPμ PΔE and ICD fragments” value with PTPμ was “Stabilization of PTPμ ICD; also recorded: stabilized”.
As to “PTPμ wedge peptide: Peptide targeting the helix-loop-helix wedge domain of PTPμ with a membrane-penetrant Tat-derived sequence at the C-terminus (likely SEQ ID NO: 5) (DLLQHITQMKCAEGYGFKEEYESGRKKRRQRRRC)”, the entries for the “migration of LN-229 cells” value in the test on LN-229 cells and with LN-229 cells (listed as PTPμ wedge inhibitor peptide) were “significantly reduced migration” and “statistically significant difference in migration”, respectively.

These data come from patent publication US10745703B2, “Compositions and methods for treating cancer” (CASE WESTERN RESERVE UNIVERSITY, priority 2009, dated 2020).
